Marks after values point to notes of the source that are not given here.
Tests used:
[1] = system: Spodoptera littoralis; assay: Contact mortality (Leaf Disc Method); details: Table 3; application dose 3 cc/l (0.3%); Abbott's corrected; 24 h
Procedure: Which is compared to individual solvent, using different solvents in order to extract active principles from vegetable matrix in the step b) claimed process and a third option that is evaporated the resulting solvent in the extraction process. Vegetable matrix is Carum carvi seed. Three kinds of treatments previously mentioned are: • Treatment A: Individual solvent • Treatment B: Plant extract without solvent. The solvent was removed by vacuum concentration and the composition was prepared using the crude extract in an aqueous solution in 2% Tween^Tm24. • Treatment C: Plant extract with different solvents.
The biopesticidal activity of the different treatments is tested in vitro against two lepidopteran pests: polyphagous Spodoptera littoralis and olyphagous Tuta absoluta. Aside from benzyl alcohol, solvents frequently used to formulate chemical products such as ethanol, isopropanol and water are used in the treatments. Table 3. In vitro trials against chewing lepidopteran pests
The objective of this bioassay is to evaluate the effect of test items on the mortality of adult insects and mites in a short/medium-term (0-24 hours) by topical application. Tests were conducted in plastic net bottles. A total of 10 replicates for each treatment (tests items and negative control) were used in each experiment and temporarily replicated 3 times along the week. (Figure 4)
Numbers of live and dead adult insects and mites were counted at 24 h post-treatment. Adult insects and mites were considered dead if no movement was apparent after probing with the tip of a fine brush under stereoscopic magnifying glass. Mortality percentage was calculated in treatment and control groups. If the mortality in negative control is above 20% the test was discarded.
Means of %M were compared using a one-way analysis of variance (ANOVA, p<0.05) and LSD-test as a post hoc test to verify significant differences between single treatments using Statgraphics Centurion XVII software. When nonnormality in the data was detected, an additional Kruskal-Wallis test was conducted, and Box-and-Whisker Plot (Median Notch) was presented. • Antifeedant effects

[2] = system: Bemisia tabaci; assay: Contact mortality (Leaf Disc Method); assay type: in vivo; details: Table 4, application dose 3 cc/l (0.3%), Abbott's corrected
[3] = system: Myzus persicae; assay: Contact mortality (Leaf Disc Method); assay type: in vivo; details: Table 4, application dose 3 cc/l (0.3%), Abbott's corrected
[4] = system: Frankliniella occidentalis; assay: Contact mortality (Leaf Disc Method); assay type: in vivo; details: Table 4, application dose 3 cc/l (0.3%), Abbott's corrected
[5] = system: Tetranychus urticae; assay: Contact mortality (Leaf Disc Method); assay type: in vivo; details: Table 5, application dose 3 cc/l (0.3%), Abbott's corrected
[6] = general property stated in the summary; cited from earlier work
[7] = system: Tuta absoluta; assay: Contact mortality (Leaf Disc Method); details: Table 3; application dose 3 cc/l (0.3%); Abbott's corrected; 24 h

SMILES	Contact mortality (%M) Spodoptera littoralis [1]	Contact mortality (%M) Bemisia tabaci (adults) [2]	Contact mortality (%M) Myzus persicae (adults) [3]	Contact mortality (%M) Frankliniella occidentalis (immature) [4]	Contact mortality (%M) Tetranychus urticae (adults) [5]	solubility in water [6] [g/100 mL]	Contact mortality (%M) Tuta absoluta [7]	Contact mortality (%M) Bemisia tabaci (adults) ([2]; 1440 min)	Contact mortality (%M) Myzus persicae (adults) ([3]; 1440 min)	Contact mortality (%M) Frankliniella occidentalis (immature) ([4]; 1440 min)	Contact mortality (%M) Tetranychus urticae (adults) ([5]; 1440 min)
OCc1ccccc1 [Benzyl alcohol (BnOH), Benzyl alcohol]	17.4 ± 6.2 ^de %	49.8 ± 6.2 ^cd %	19.8 ± 6.2 ^d %	12.5 ± 7.8 ^d %	33.4 ± 4.1 ^d %	4	29.6 ± 5.7 ^d %	–	–	–	–
CCO [Ethanol (EtOH), Ethanol]	0.0 ± 0.0 ^f %	23.5 ± 8.4 ^d %	16.7 ± 9.1 ^d %	0.0 ± 0.0 ^e %	0.0 ± 0.0 ^e %	–	0.0 ± 0.0 ^e %	–	–	–	–
CC(C)O [Isopropanol (IPN), Isopropanol]	4.2 ± 6.1 ^f %	0.0 ± 0.0 ^e %	0.0 ± 0.0 ^e %	0.0 ± 0.0 ^e %	0.0 ± 0.0 ^e %	–	11.4 ± 7.2 ^e %	–	–	–	–
O [Water]	0.0 ± 0.0 ^f %	–	–	–	–	–	0.0 ± 0.0 ^e %	0.0 ± 0.0 ^e %	0.0 ± 0.0 ^e %	0.0 ± 0.0 ^e %	0.0 ± 0.0 ^e %
